The text below walks through data of patent EP3165222A1, “USE OF PHTHALIDE COMPOUND” (Everfront Biotech Inc., priority 2014, dated 2016).

SMILES strings stand for the structures. Like-named read-outs stand apart in the source and are kept apart here.

One data set relates to ATXN3 protein. The experiment in a line: In vitro cell test: GFP-ATXN3 protein aggregation/expression in transfected cells by fluorescence microscopy. Type of data set: cell-based, human. To be noted: pEGFP-C1-Ataxin3Q84 transfected HEK 293T or neural stem cells; 5 µg/ml for 24 hours; versus untreated groups; Figure 1. How it is done:
In this experiment, the effects of BP and ligustilide on the protein expression level of SCA3 protein were analyzed. Frist, pEGFP-C1-Ataxin3Q84 plasmid (i.e., a plasmid comprising Ataxin gene with abnormal CAG repeat number (84Q)) containing green fluorescent protein or pEGFP-C1-Ataxin3Q28 plasmid (i.e., a plasmid comprising Ataxin gene with normal CAG repeat number (28Q)) (Addgene company, U.S.) was transfected into human embryonic kidney (HEK) cells 293T (Bioresource Collection and Research Center, Taiwan) or neural stem cells (NSC). The cells were then cultured in a DMEM medium (Dulbecco's modified Eagle's medium, Thermo) containing 10% fetal bovine serum (Gibco), and incubated in an incubator with 5% CO2 at 37°C. Then, the cells were treated with 5 µg/ml BP (A10353, purchased from Alfa Aesar, U.S.; with a purity of 95%) or ligustilide (5393-015M1, purchased from Pharmaron, China) for 24 hours. The protein aggregation of GFP-ATXN3 protein in the cells of each group was observed by a fluorescence microscopy. Wild type cells and cells transfected with green fluorescent protein (GFP) were used as the control group.

Data set [1] in a line: Safe dose test (toxicity of BP to zebrafish, survival rate). As to conditions: in vivo, after 48 hours, 28.5°C, Figure 2, read-out: survival rate of the zebrafishes. How it is done: In this experiment, the zebrafishes that were used as the animal models in the experimental group were Tg (HuC:GFP), which is characterized by its primary sensory neurons (Rohon-Beard cells) that can produce fluorescence. The zebrafishes used in the control group were wild type zebrafishes. All of the zebrafishes were provided by TZCAS (Taiwan Zebrafish Core Facility at Academia Sinica, Taiwan) and TZCF (Taiwan Zebrafish Core Facility, Taiwan). First, the toxicity of BP to zebrafish was tested by injecting different dose of BP to zebrafishes. The zebrafishes were then kept at 28.5°C. After 48 hours, the survival rate of the zebrafishes was observed.

Another data set has as its system zebrafish. The experiment in a line: Behavioral test in zebrafish injected with ATXN3 MO (tail stimulation). The format is in vivo. To be noted: Figure 3. On the procedure: Morpholinos (MO) was produced by modifying the structure of a fragment of DNA, which can block protein translation process of mRNA to inhibit the expression of a target protein. The ATXN3 MO used in this experiment has a sequence of 5'-[…]-3' (SEQ ID NO. : 1), and the standard used in the control group is 5'-[…]-3' (SEQ ID NO. : 2) (hereinafter referred to as "Ct MO"). Before injection, the MO was dissolved in ddH2O, stored at -20°C for used. Zebrafish eggs were micro-injected within about one hour after birth. After 21 to 48 hours post fertilization (hpf), the zebrafish eggs were micro-injected with ATXN3 MO or ATXN3 MO in combination with 250 mg/kg BP, 125 mg/kg BP or 62.5 mg/kg BP. After 48 hours, the fish tails were stimulated by tips, and the number of stimulation causing movement of the fish tails was measured.

The next data set concerns motor neurons. The experiment in a line: Confocal microscopy test of motor neurons in zebrafish injected with ATXN3 MO. Type of data set: in vivo. To be noted: ATXN3 MO in combination with 250 mg/kg BP; after 48 hours; Figure 4. How it is done: Zebrafish eggs were micro-injected with 300 nM/µl ATXN3 MO, 250 mg/kgBP, or ATXN3 MO in combination with 250 mg/kgBP, 125 mg/kg BP or 62.5 mg/kgBP. After 48 hours, the zebrafishes were enclosed in glass slides. The motor neurons in the living body were recorded by a confocal fluorescence microscopy.

The test system of data set [2] is MJD84.2 transgenic mice. The experiment in a line: Local motor test in MJD84.2 transgenic mice (SCA3 mice). Type of data set: in vivo. As to conditions: BP 100 or 500 mg/kg/bid, ligustilide 100 mg/kg/bid, versus untreated group and olive oil group; for total moving distance: Figure 5A; for moving times: Figure 5B; for moving time: Figure 5C. How it is done:
(§1) MJD84.2 transgenic mice (i.e., the mice being transfected with ATXN3 gene with human 84 CAG repeat sequence, hereinafter referred to as "SCA3 mice") were used in this experiment. MJD84.2 transgenic mice were an animal model used for studying spinal cerebellar atrophy.
(§2) The MJD84.2 transgenic mice of […] were randomly divided into five groups, each group had six mice. The mice were treated with the following conditions for two weeks: (1) untreated group; (2) treated with olive oil (i.e., only treated with the adjuvant); (3) treated with 100 mg/kg/bid (bis in die) of BP; (4) treated with 500 mg/kg/bid of BP; (5) treated with 100 mg/kg/bid of ligustilide. The wild type mice (WT) was used as a control group. After 2 weeks, local motor and rotarod test were conducted.
Local motor test was performed to test the exercise ability of mice. 10-week-old mice were tested on rotarod once every three weeks. Then, the mice were placed in a transparent acrylic box 2 hours and were free to move. A behavioral test was conducted for 1 hour by using VersaMax 420 (AccuscanInstrumentsInc, USA), and the data was analyzed by statistical methods.

Data set [3] deals with MJD84.2 transgenic mice. The experiment in a line: Rotarod test in MJD84.2 transgenic mice (SCA3 mice). Type of data set: in vivo. As to conditions: BP 100 or 500 mg/kg/bid, ligustilide 100 mg/kg/bid; versus untreated group and olive oil group; Figure 6. On the procedure:
as §1, §2
Rotarod test was performed to test the balance and grip ability of mice. The mice were given practice two weeks before the first behavioral test. The experiment was conducted using an IITC rotarod (IITC Life Science Inc, USA). 10-week-old mice were tested on a rotarod once every three weeks. The test condition was set as a linear acceleration from 4 to 40 rpm within 300 seconds. The time (sec) that the mice fell from the rotarod (i.e., latency to fall) was recorded. […] After the rotarod test, the body weight of the mice were recorded. […]
In general terms: The rotarod test checks motor coordination on a turning rod.

A further data set deals with Purkinje cells. The experiment in a line: Immunohistochemistry staining of cerebellar slices of SCA3 mice. Type of data set: in vivo. As to conditions: cerebellum slices; BP 100 or 500 mg/kg/bid, ligustilide 100 mg/kg/bid; sacrificed at 20 and 24 weeks; versus untreated and olive oil groups; Figure 7. On the procedure:
(§3) The MJD84.2 transgenic mice (i.e., the mice with modified ATXN3 gene) of eight weeks of age were randomly divided into five groups, with six mice in each group. The mice were treated with the following conditions: (1) untreated group; (2) treated with olive oil; (3) treated with 100 mg/kg/bid of BP; (4) treated with 500 mg/kg/bid of BP; (5) treated with 100 mg/kg/bid of ligustilide. Then, the mice were sacrificed at the age of 20 weeks and 24 weeks. Cerebellar slices staining and tissue protein extraction were performed (see Example 5). Whole brain tissue of the mice was fixed overnight with 3.7% formalin and embedded in paraffin. The samples were sectioned (4 µm) by using a Quanto kit (Thermo, USA) and mounted on a microscope slide.

The next data set concerns calbindin. The experiment in a line: Western blotting of cerebellum tissue of SCA3 mice, anti-calbindin antibody. Type of data set: in vivo. To be noted: BP 100 or 500 mg/kg/bid, ligustilide 100 mg/kg/bid, versus untreated and olive oil groups, Figure 8. On the procedure: as §3
(§4) The cerebellums of the mice sacrificed in example 4 were separated from the whole brain, and the proteins in the cerebellums were extracted. The purified proteins were analyzed by Western blotting assay using an anti-ubiquitin antibody and an anti-calbindin antibody, respectively, to determine the changes in the protein expression level of ubiquitin and calbindin in the cerebellum tissue of SCA3 mice in each group. β-actin was used as an internal control group.
A general note: In western blotting, separated proteins are transferred to a membrane and probed.

A further data set relates to ubiquitin. The experiment in a line: Western blotting of cerebellum tissue of SCA3 mice, anti-ubiquitin antibody. The format is in vivo. To be noted: mice treated with BP, versus untreated and olive oil groups, Figure 9. On the procedure: as §3, §4

In the case of `CCCC=C1OC(=O)c2ccccc21` [BP, n-butylidenephthalide], in the data set with ATXN3 protein, the “fluorescent signal of Ataxin3Q84” value was “significantly lower”. Also, in data set [1] (50 mg/kg BP injected), the survival at 48 h is more than 75%. For the same compound, in data set [1] (250 mg/kg BP injected), the survival at 48 h is more than 75%. The survival at 48 h in data set [1] (500 mg/kg BP injected) worked out at 50%. Besides, in the data set on zebrafish (250 mg/kg BP compared with the other BP doses), the “restoring the behavioral ability of the diseased zebrafishes” value was “the most obvious effect”. In the data set on zebrafish (ATXN3 MO in combination with 250, 125 or 62.5 mg/kg BP, after 48 hours, versus ATXN3 MO alone), the “amount of stimulation-caused movement of fish tails” value was “restored (i.e., decreased)”. Besides, the “number of motor neurons” value in the data set on motor neurons was “can maintain the number of motor neurons”. In addition, in the data set with MJD84.2 transgenic mice [2], the total moving distance entry was “higher”, the moving times result is reported as “higher” and the moving time entry was “higher”. In addition, in the data set on MJD84.2 transgenic mice [3], the “balance and grip ability (latency to fall)” value is “better”. Moreover, the “number of Purkinje cells” value in the data set with Purkinje cells is reported as “significantly higher”. For the same compound, the “protein expression level of calbindin” value in the data set on calbindin is recorded as “significantly higher”. Besides, the “content of the ubiquitin ubiquitination proteins” value with ubiquitin is given as “significantly higher”.

For the compound `CCCC=C1OC(=O)C2=C1CCC=C2` [ligustilide, 3-butylidene-4,5-dihydrophthalide], in the data set with ATXN3 protein, the “fluorescent signal of Ataxin3Q84” value is “significantly lower”. Besides, in the data set on MJD84.2 transgenic mice [2], the total moving distance entry was “higher”, the moving times result was “higher” and the moving time result is listed as “higher”. Also, the “balance and grip ability (latency to fall)” value in the data set with MJD84.2 transgenic mice [3] is given as “better”. In the data set on Purkinje cells, the “number of Purkinje cells” value is recorded as “significantly higher”. Moreover, the “protein expression level of calbindin” value with calbindin was “significantly higher”.
